Results from PubChem BioAssay AID258 (DTP/NCI, 2004).
Values joined by “and” are separate entries in the source; they are usually repeats but may differ in a detail not shown here. Equal values may be shown once. Inconclusive results and toxic doses are left out.

System: CD2F1 mice, L1210 leukemia sc, survival T/C
Assay: NCI In Vivo Anticancer Drug Screen. Data for tumor model L1210 Leukemia (subcutaneous) in CD2F1 (CDF1) mice
Settings: endpoint: median survival time, higher = longer survival
Procedure, shortened: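 Mice with transplanted tumor dosed; survival/tumor size read; T/C vs vehicle controls.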

[1] = dose: 25.0 mg/kg/injection, schedule: Q01DX009 (ip), vehicle: saline
[2] = dose: 50.0 mg/kg/injection, schedule: Q01DX009 (ip), vehicle: saline
[3] = dose: 100.0 mg/kg/injection, schedule: Q01DX009 (ip), vehicle: saline

Compound: C[C@]12C[C@H](O)[C@H]3[C@@H](CCC4=CC(=O)CC[C@@]43C)[C@@H]1CC[C@@H]2C(=O)CO
- T/C (dose: 180.0 mg/kg/injection, schedule: Q01DX Z (sc), vehicle: methylcellulose (MC)): 100 % of control

Compound: C[C@H](N)C(=O)N[C@@H]1[C@H]2C(=C(O)C[C@@H](O)[C@@H]2O)C(=O)O[C@]1(C)C(Cl)Cl
- T/C (dose: 0.37 mg/kg/injection, schedule: Q01DX009 (ip), vehicle: water): 111 % of control
- T/C (dose: 0.62 mg/kg/injection, schedule: Q01DX005 (ip), vehicle: water): 112 % of control
- T/C (dose: 0.62 mg/kg/injection, schedule: Q01DX005 (iv), vehicle: water): 113 % of control
- T/C (dose: 0.75 mg/kg/injection, schedule: Q01DX009 (ip), vehicle: water): 120 % of control
- T/C (dose: 0.75 mg/kg/injection, schedule: Q01DX009 (sc), vehicle: water): 116 % of control
- T/C (dose: 1.25 mg/kg/injection, schedule: Q01DX005 (ip), vehicle: water): 124 % of control
- T/C (dose: 1.5 mg/kg/injection, schedule: Q01DX009 (oral), vehicle: water): 108 % of control
- T/C (dose: 3.0 mg/kg/injection, schedule: Q01DX009 (ip), vehicle: water): 160 % of control
- T/C (dose: 3.0 mg/kg/injection, schedule: Q01DX009 (oral), vehicle: water): 109 % of control
- T/C (dose: 3.0 mg/kg/injection, schedule: Q01DX009 (sc), vehicle: water): 160 % of control
- T/C (dose: 6.0 mg/kg/injection, schedule: Q01DX009 (oral), vehicle: water): 112 % of control
- T/C (dose: 12.0 mg/kg/injection, schedule: Q01DX009 (oral), vehicle: water): 120 % of control

Compound: O=C(O)c1cc(=O)[nH]c(=O)[nH]1
- T/C (dose: 300.0 mg/kg/injection, schedule: Q01DX Z (sc), vehicle: saline): 100 % of control

Compound: O=NN(CCCl)C(=O)NC12CC3CC(CC(C3)C1)C2
- T/C (dose: 6.25 mg/kg/injection, schedule: Q01DX Z (sc), vehicle: carboxymethylcellulose (CMC)): 100 % of control
- T/C (dose: 12.5 mg/kg/injection, schedule: Q01DX Z (sc), vehicle: carboxymethylcellulose (CMC)): 100 % of control
- T/C (dose: 25.0 mg/kg/injection, schedule: Q01DX Z (sc), vehicle: carboxymethylcellulose (CMC)): 110 % of control
- T/C (dose: 50.0 mg/kg/injection, schedule: Q01DX Z (sc), vehicle: carboxymethylcellulose (CMC)): 325 % of control
- T/C (dose: 100.0 mg/kg/injection, schedule: Q01DX Z (sc), vehicle: carboxymethylcellulose (CMC)): 240 % of control

Compound: CN(CCN(C)C(=O)CCOS(C)(=O)=O)C(=O)CCOS(C)(=O)=O
- T/C [1]: 106 % of control and 107 % of control
- T/C [2]: 123 % of control
- T/C [3]: 171 % of control
- T/C (dose: 200.0 mg/kg/injection, schedule: Q01DX009 (ip), vehicle: saline): 103 % of control and 94 % of control

Compound: CC[C@](O)(C(=O)O)c1cc2n(c(=O)c1CO)Cc1cc3ccccc3nc1-2
- T/C (dose: 1.33 mg/kg/injection, schedule: Q01DX009 (ip), vehicle: saline): 121 % of control
- T/C (dose: 1.33 mg/kg/injection, schedule: Q01DX009 (sc), vehicle: saline): 122 % of control
- T/C (dose: 2.0 mg/kg/injection, schedule: Q01DX009 (ip), vehicle: saline): 154 % of control
- T/C (dose: 4.0 mg/kg/injection, schedule: Q01DX009 (ip), vehicle: saline): 113 % of control
- T/C (dose: 5.0 mg/kg/injection, schedule: Q01DX009 (sc), vehicle: saline): 101 % of control
- T/C (dose: 8.0 mg/kg/injection, schedule: Q01DX009 (ip), vehicle: saline): 86 % of control
- T/C (dose: 8.0 mg/kg/injection, schedule: Q01DX009 (sc), vehicle: saline): 86 % of control
- T/C (dose: 12.0 mg/kg/injection, schedule: Q01DX009 (sc), vehicle: saline): 115 % of control
- T/C (dose: 16.0 mg/kg/injection, schedule: Q01DX009 (sc), vehicle: saline): 113 % of control

Compound: O=P1(NCCCl)OCCCN1CCCl (stereo unspecified)
- T/C (dose: 6.25 mg/kg/injection, schedule: Q01DX009 (ip), vehicle: saline): 122 % of control
- T/C (dose: 6.25 mg/kg/injection, schedule: Q01DX009 (sc), vehicle: saline): 116 % of control
- T/C (dose: 12.5 mg/kg/injection, schedule: Q01DX009 (ip), vehicle: saline): 151 % of control
- T/C [1]: 161 % of control
- T/C [2]: 169 % of control and 188 % of control
- T/C (dose: 66.7 mg/kg/injection, schedule: Q01DX009 (ip), vehicle: saline): 179 % of control
- T/C (dose: 66.7 mg/kg/injection, schedule: Q01DX009 (sc), vehicle: saline): 197 % of control
- T/C [3]: 188 % of control and 235 % of control
- T/C (dose: 100.0 mg/kg/injection, schedule: Q01DX009 (sc), vehicle: saline): 155 % of control and 182 % of control and 232 % of control
- T/C (dose: 133.4 mg/kg/injection, schedule: Q01DX009 (sc), vehicle: saline): 265 % of control
- T/C (dose: 150.0 mg/kg/injection, schedule: Q01DX009 (ip), vehicle: saline): 247 % of control
- T/C (dose: 150.0 mg/kg/injection, schedule: Q01DX009 (sc), vehicle: saline): 258 % of control
- T/C (dose: 200.0 mg/kg/injection, schedule: Q01DX001 (sc), vehicle: water): 187 % of control and 188 % of control
- T/C (dose: 300.0 mg/kg/injection, schedule: Q01DX001 (sc), vehicle: water): 211 % of control and 217 % of control
- T/C (dose: 300.0 mg/kg/injection, schedule: Q01DX009 (sc), vehicle: saline): 176 % of control
- T/C (dose: 400.0 mg/kg/injection, schedule: Q01DX001 (sc), vehicle: water): 241 % of control
- T/C (dose: 400.0 mg/kg/injection, schedule: Q01DX009 (ip), vehicle: saline): 98 % of control
- T/C (dose: 400.0 mg/kg/injection, schedule: Q01DX009 (sc), vehicle: saline): 108 % of control
- T/C (dose: 500.0 mg/kg/injection, schedule: Q01DX001 (sc), vehicle: water): 241 % of control and 244 % of control
- T/C (dose: 600.0 mg/kg/injection, schedule: Q01DX001 (sc), vehicle: water): 300 % of control and 302 % of control
- T/C (dose: 700.0 mg/kg/injection, schedule: Q01DX001 (sc), vehicle: water): 264 % of control and 290 % of control

Compound: N#CC(c1ccccc1)c1cccc2ccccc12 (stereo unspecified)
- T/C (dose: 23.0 mg/kg/injection, schedule: Q01DX Z (sc), vehicle: methylcellulose (MC)): 109 % of control
- T/C (dose: 39.0 mg/kg/injection, schedule: Q01DX Z (sc), vehicle: methylcellulose (MC)): 119 % of control
- T/C (dose: 65.0 mg/kg/injection, schedule: Q01DX Z (sc), vehicle: methylcellulose (MC)): 152 % of control

Compound: CC(=O)Nc1ccc2nc3ccc(NC(C)=O)cc3[n+](-c3ccccc3)c2c1
- T/C (dose: 8.4 mg/kg/injection, schedule: Q01DX Z (ip), vehicle: saline): 90 % of control
- T/C (dose: 14.0 mg/kg/injection, schedule: Q01DX Z (ip), vehicle: saline): 95 % of control
- T/C (dose: 14.0 mg/kg/injection, schedule: Q01DX Z (sc), vehicle: saline): 100 % of control
- T/C (dose: 23.0 mg/kg/injection, schedule: Q01DX Z (ip), vehicle: saline): 90 % of control
- T/C (dose: 23.0 mg/kg/injection, schedule: Q01DX Z (sc), vehicle: saline): 100 % of control
- T/C (dose: 39.0 mg/kg/injection, schedule: Q01DX Z (ip), vehicle: saline): 100 % of control
- T/C (dose: 39.0 mg/kg/injection, schedule: Q01DX Z (sc), vehicle: saline): 100 % of control
- T/C (dose: 65.0 mg/kg/injection, schedule: Q01DX Z (ip), vehicle: saline): 100 % of control
- T/C (dose: 65.0 mg/kg/injection, schedule: Q01DX Z (sc), vehicle: saline): 105 % of control
- T/C (dose: 108.0 mg/kg/injection, schedule: Q01DX Z (ip), vehicle: saline): 100 % of control
- T/C (dose: 108.0 mg/kg/injection, schedule: Q01DX Z (sc), vehicle: saline): 100 % of control
- T/C (dose: 180.0 mg/kg/injection, schedule: Q01DX Z (sc), vehicle: saline): 110 % of control

Compound: O=C(NO)c1cc(O)c(O)c(O)c1
- T/C (dose: 25.0 mg/kg/injection, schedule: Q01DX009 (ip), vehicle: distilled water + Tween-80): 97 % of control and 100 % of control
- T/C (dose: 50.0 mg/kg/injection, schedule: Q01DX009 (ip), vehicle: distilled water + Tween-80): 104 % of control
- T/C (dose: 100.0 mg/kg/injection, schedule: Q01DX009 (ip), vehicle: distilled water + Tween-80): 100 % of control and 102 % of control
- T/C (dose: 200.0 mg/kg/injection, schedule: Q01DX009 (ip), vehicle: distilled water + Tween-80): 124 % of control
- T/C (dose: 400.0 mg/kg/injection, schedule: Q01DX009 (ip), vehicle: distilled water + Tween-80): 90 % of control

Compound: O=C[C@@H](CO)O[C@H](C=O)c1c[nH]c(=O)[nH]c1=O
- T/C (dose: 54.0 mg/kg/injection, schedule: Q04DX003 (ip), vehicle: saline): 106 % of control
- T/C (dose: 90.0 mg/kg/injection, schedule: Q04DX003 (ip), vehicle: saline): 123 % of control

Compound: Nc1nc2c(ncn2C2CC(O)C(CO)O2)c(=O)[nH]1 (stereo unspecified)
- T/C (dose: 31.0 mg/kg/injection, schedule: Q01DX Z (sc), vehicle: water): 100 % of control

Compound: CC(C)CCNc1ncnc2c1cnn2C
- T/C (dose: 23.0 mg/kg/injection, schedule: Q01DX Z (sc), vehicle: water): 100 % of control
- T/C (dose: 39.0 mg/kg/injection, schedule: Q01DX Z (sc), vehicle: water): 100 % of control
- T/C (dose: 65.0 mg/kg/injection, schedule: Q01DX Z (sc), vehicle: water): 100 % of control
- T/C (dose: 108.0 mg/kg/injection, schedule: Q01DX Z (sc), vehicle: water): 109 % of control
- T/C (dose: 180.0 mg/kg/injection, schedule: Q01DX Z (sc), vehicle: water): 100 % of control
